Results reported in patent US20210254272A1, “TEXTILES HAVING ANTIMICROBIAL PROPERTIES” (Livinguard AG, priority 2015, published 2021).

Test system: E. coli (ATCC 25922)
Experiment: AATCC Test Method 100-2012 antibacterial activity of the treated textile, after 25 washes and 12 abrasion cycles, contact time 60 minutes
Format: cell-based
Settings: for Log reduction of antimicrobial performance: 1% o.w.f; for Log reduction of antimicrobial performance in 100 GSM Polyester fabric / Log reduction of antimicrobial performance in 100 GSM cotton fabric / Log reduction of antimicrobial performance in 300 GSM Polyester fabric / Log reduction of antimicrobial performance in 300 GSM cotton fabric / Performance Test-Log reduction of antimicrobial performance: 2 min; for Performance Test-Log reduction of antimicrobial performance: pad process, single agent 5 gm/lit
Method: The antibacterial activity of the textile was tested in accordance with AATCC Test Method 100-2012. Prior to the test, the fabric was cut into coupons of 2×4 inches and washed separately 25 times, and exposed to 12 abrasion cycles, as per US EPA protocol 90072PA4 (described further below). The tests were made against E. coli (ATCC 25922). Contact time was 60 minutes, after inoculating with 10^8 CFU per coupon.

[1] = exhaust 80° C., 60 min, curing 180° C., dosage 0.1% o.w.f
[2] = exhaust 80° C., 60 min, curing 180° C., dosage 0.2% o.w.f
[3] = exhaust 80° C., 60 min, curing 180° C., dosage 0.5% o.w.f
[4] = exhaust 80° C., 60 min, curing 180° C., dosage 0.8% o.w.f
[5] = exhaust 80° C., 60 min, curing 180° C., dosage 1.0% o.w.f

## CCCCCCCCCCCCCCCCCC[N+](C)(C)CCC[Si](OC)(OC)OC [Organosilane, dimethyloctadecyl[3-(trimethoxysilyl)propyl] ammonium chloride]
Exhaust 60° C., solution dosage 1% o.w.f, process time 60 min
  Log reduction of antimicrobial performance of each active ingredient: 1.5 Log
Exhaust 60° C., solution dosage 1% o.w.f, process time 90 min
  Log reduction of antimicrobial performance of each active ingredient: 1.7 Log
Exhaust 60° C., solution dosage 1% o.w.f, process time 120 min
  Log reduction of antimicrobial performance of each active ingredient: 1.8 Log
Exhaust 60° C., solution dosage 1% o.w.f, process time 180 min
  Log reduction of antimicrobial performance of each active ingredient: 1.8 Log
Exhaust 60° C., solution dosage 1% o.w.f, process time 240 min
  Log reduction of antimicrobial performance of each active ingredient: 1.73 Log
Exhaust 80° C., 60 min, curing 170° C., curing dwell time 0.5 min
  Log reduction of antimicrobial performance: 0.3 Log
Exhaust 80° C., 60 min, curing 170° C., curing dwell time 1.0 min
  Log reduction of antimicrobial performance: 0.5 Log
Exhaust 80° C., 60 min, curing 170° C., curing dwell time 1.5 min
  Log reduction of antimicrobial performance: 0.6 Log
Exhaust 80° C., 60 min, curing 170° C., curing dwell time 2.0 min
  Log reduction of antimicrobial performance: 1.2 Log
Exhaust 80° C., 60 min, curing 170° C., curing dwell time 2.5 min
  Log reduction of antimicrobial performance: 1.2 Log
Exhaust 80° C., 60 min, curing 170° C., curing dwell time 3.0 min
  Log reduction of antimicrobial performance: 0.75 Log
Exhaust 80° C., 60 min, curing 180° C., curing dwell time 0.5 min
  Log reduction of antimicrobial performance: 1.5 Log
Exhaust 80° C., 60 min, curing 180° C., curing dwell time 1.0 min
  Log reduction of antimicrobial performance: 1.7 Log
Exhaust 80° C., 60 min, curing 180° C., curing dwell time 1.5 min
  Log reduction of antimicrobial performance: 1.8 Log
Exhaust 80° C., 60 min, curing 180° C., curing dwell time 2.0 min
  Log reduction of antimicrobial performance: 3.9 Log
Exhaust 80° C., 60 min, curing 180° C., curing dwell time 2.5 min
  Log reduction of antimicrobial performance: 3.8 Log
Exhaust 80° C., 60 min, curing 180° C., curing dwell time 3.0 min
  Log reduction of antimicrobial performance: 3.7 Log
Exhaust 80° C., 60 min, curing 190° C., curing dwell time 0.5 min
  Log reduction of antimicrobial performance: 0.6 Log
Exhaust 80° C., 60 min, curing 190° C., curing dwell time 1.0 min
  Log reduction of antimicrobial performance: 1.1 Log
Exhaust 80° C., 60 min, curing 190° C., curing dwell time 1.5 min
  Log reduction of antimicrobial performance: 1.5 Log
Exhaust 80° C., 60 min, curing 190° C., curing dwell time 2.0 min
  Log reduction of antimicrobial performance: 2.55 Log
Exhaust 80° C., 60 min, curing 190° C., curing dwell time 2.5 min
  Log reduction of antimicrobial performance: 2.46 Log
Exhaust 80° C., 60 min, curing 190° C., curing dwell time 3.0 min
  Log reduction of antimicrobial performance: 1.2 Log
Exhaust 80° C., 60 min, curing temperature 100 ° C.
  Log reduction of antimicrobial performance: 0.17 Log
Exhaust 80° C., 60 min, curing temperature 120 ° C.
  Log reduction of antimicrobial performance: 0.56 Log
Exhaust 80° C., 60 min, curing temperature 140 ° C.
  Log reduction of antimicrobial performance: 0.97 Log
Exhaust 80° C., 60 min, curing temperature 160 ° C.
  Log reduction of antimicrobial performance: 1.11 Log
Exhaust 80° C., 60 min, curing temperature 165 ° C.
  Log reduction of antimicrobial performance: 1.16 Log
Exhaust 80° C., 60 min, curing temperature 170 ° C.
  Log reduction of antimicrobial performance: 1.26 Log
Exhaust 80° C., 60 min, curing temperature 175 ° C.
  Log reduction of antimicrobial performance: 2.16 Log
Exhaust 80° C., 60 min, curing temperature 180 ° C.
  Log reduction of antimicrobial performance: 2.56 Log
Exhaust 80° C., 60 min, curing temperature 185 ° C.
  Log reduction of antimicrobial performance: 2.59 Log
Exhaust 80° C., 60 min, curing temperature 190 ° C.
  Log reduction of antimicrobial performance: 2.61 Log
Exhaust 80° C., 60 min, curing temperature 195 ° C.
  Log reduction of antimicrobial performance: 2.63 Log
[1]
  Log reduction of antimicrobial performance in 100 GSM Polyester fabric: 0.73 Log
  Log reduction of antimicrobial performance in 100 GSM cotton fabric: 0.81 Log
  Log reduction of antimicrobial performance in 300 GSM Polyester fabric: 0.75 Log
  Log reduction of antimicrobial performance in 300 GSM cotton fabric: 0.82 Log
[2]
  Log reduction of antimicrobial performance in 100 GSM Polyester fabric: 1.67 Log
  Log reduction of antimicrobial performance in 100 GSM cotton fabric: 1.67 Log
  Log reduction of antimicrobial performance in 300 GSM Polyester fabric: 1.65 Log
  Log reduction of antimicrobial performance in 300 GSM cotton fabric: 1.68 Log
[3]
  Log reduction of antimicrobial performance in 100 GSM Polyester fabric: 1.79 Log
  Log reduction of antimicrobial performance in 100 GSM cotton fabric: 1.83 Log
  Log reduction of antimicrobial performance in 300 GSM Polyester fabric: 1.80 Log
  Log reduction of antimicrobial performance in 300 GSM cotton fabric: 1.83 Log
[4]
  Log reduction of antimicrobial performance in 100 GSM Polyester fabric: 2.19 Log
  Log reduction of antimicrobial performance in 100 GSM cotton fabric: 2.17 Log
  Log reduction of antimicrobial performance in 300 GSM Polyester fabric: 2.20 Log
  Log reduction of antimicrobial performance in 300 GSM cotton fabric: 2.18 Log
[5]
  Log reduction of antimicrobial performance in 100 GSM Polyester fabric: 2.58 Log
  Log reduction of antimicrobial performance in 100 GSM cotton fabric: 2.56 Log
  Log reduction of antimicrobial performance in 300 GSM Polyester fabric: 2.58 Log
  Log reduction of antimicrobial performance in 300 GSM cotton fabric: 2.57 Log
Exhaust 80° C., 60 min, dosage 1% o.w.f (test up to 5% o.w.f)
  Log reduction of antimicrobial performance of each active ingredient: 2.38 Log
Exhaust 80° C., 60 min, dosage 2% o.w.f
  Log reduction of antimicrobial performance of each active ingredient: 2.38 Log
Exhaust 80° C., 60 min, dosage 3% o.w.f
  Log reduction of antimicrobial performance of each active ingredient: 2.41 Log
Exhaust 80° C., 60 min, dosage 4% o.w.f
  Log reduction of antimicrobial performance of each active ingredient: 2.42 Log
Exhaust 80° C., 60 min, dosage 5% o.w.f
  Log reduction of antimicrobial performance of each active ingredient: 2.43 Log
Exhaust 80 ° C., solution dosage 1% o.w.f, process time 10 min
  Log reduction of antimicrobial performance of each active ingredient: 0.78 Log
Exhaust 80 ° C., solution dosage 1% o.w.f, process time 20 min
  Log reduction of antimicrobial performance of each active ingredient: 1.11 Log
Exhaust 80 ° C., solution dosage 1% o.w.f, process time 30 min
  Log reduction of antimicrobial performance of each active ingredient: 1.41 Log
Exhaust 80 ° C., solution dosage 1% o.w.f, process time 40 min
  Log reduction of antimicrobial performance of each active ingredient: 1.84 Log
Exhaust 80 ° C., solution dosage 1% o.w.f, process time 50 min
  Log reduction of antimicrobial performance of each active ingredient: 2.38 Log
Exhaust 80 ° C., solution dosage 1% o.w.f, process time 60 min
  Log reduction of antimicrobial performance of each active ingredient: 2.56 Log
Exhaust 80 ° C., solution dosage 1% o.w.f, process time 70 min
  Log reduction of antimicrobial performance of each active ingredient: 2.58 Log
Exhaust 80 ° C., solution dosage 1% o.w.f, process time 80 min
  Log reduction of antimicrobial performance of each active ingredient: 2.61 Log
Exhaust 80 ° C., solution dosage 1% o.w.f, process time 90 min
  Log reduction of antimicrobial performance of each active ingredient: 2.62 Log
Curing 120° C.
  Performance Test-Log reduction of antimicrobial performance: 0.05 Log
Curing 140° C.
  Performance Test-Log reduction of antimicrobial performance: 0.17 Log
Curing 150° C.
  Performance Test-Log reduction of antimicrobial performance: 0.27 Log
Curing 160° C.
  Performance Test-Log reduction of antimicrobial performance: 0.57 Log
